Reference: publication PMC6669322, “Small Molecule Binding to Alzheimer Risk Factor CD33 Promotes Aβ Phagocytosis” (iScience, 2019)

What was measured:
CD33 = system: CD33; parameters: method as in Rillahan et al., 2014; conditions: estimated, flow cytometry assay; ref Rillahan et al., 2014; cited from earlier work
CD33 R119A = CD33 R119A (Homo sapiens, UniProt P20138, R119A); assay: SNAP-tag homogeneous time-resolved fluorescence binding assay, CD33 R119A; parameters: human CD33 ORF (NM_001772.3), lacking its signal peptide; expressed in transfected cells; host or cells: HEK293T, transient, pT8-SNAP vector; conditions: binding affinity, R119A vs WT
Method: Figure 3 P22 Binding to CD33 Wild-Type and Mutants (A) An example of affinity analysis for 1–243 μM (3-fold dilutions) of P22 binding to immobilized CD33^C36S. Data obtained in duplicate using single-cycle analysis and fit to a steady-state binding model to determine the equilibrium binding constant. (B) An example of affinity analysis of P22 binding to immobilized CD33 wild-type (WT) as per example in (A). (C) Sensorgram data for 0.01–9 μM (3-fold dilutions) of CD33^C36S binding to immobilized P22. Data obtained in triplicate using single concentration cycles and fit to a 1:1 binding model for kinetic analysis. […]
We then used our structural data to design mutations of key residues interacting with P22 to assess which interactions were the most important for binding affinity. The residues were mutated into alanine, and the effect of these mutations on P22 binding affinity was assessed using a SNAP-tag homogeneous time-resolved fluorescence binding assay (see Transparent Methods and Figures 3E–3G). […]
HEK293T cells were cultured in DMEM (ThermoFisher Scientific # 11965092) containing 10% FBS (Hyclone # SH30070.03) and 1% Penicillin-Streptomycin (ThermoFisher Scientific # 15140122) and transfected using Fugene HD (Promega # E2312) in 10 cm plates. […] The cells were counted, centrifuged and resuspended in PBS at a concentration of 1,000 cells/μL and 10 μL were plated into each well. […]

CD33 wild-type = target: T1, CD33 wild-type (Homo sapiens, UniProt P20138); assay: surface plasmon resonance (SPR), CD33 wild-type V-set domain; assay type: binding; conditions: P22 as analyte, immobilized CD33 wild-type; 1:1 steady state model
T1 construct: DNA encoding D18 to H143 of human CD33; made in house
Method: We next performed surface plasmon resonance (SPR) measurements on P22 binding to CD33 wild-type, and selected mutants, to obtain detailed kinetic data (see Transparent Methods). The CD33 V-set domain has a free cysteine residue (C36), which caused anomalous results in some of our SPR experiments due to disulfide-linked oligomers forming in solution.
Figure 3 P22 Binding to CD33 Wild-Type and Mutants (A) An example of affinity analysis for 1–243 μM (3-fold dilutions) of P22 binding to immobilized CD33^C36S. Data obtained in duplicate using single-cycle analysis and fit to a steady-state binding model to determine the equilibrium binding constant. (B) An example of affinity analysis of P22 binding to immobilized CD33 wild-type (WT) as per example in (A). (C) Sensorgram data for 0.01–9 μM (3-fold dilutions) of CD33^C36S binding to immobilized P22. Data obtained in triplicate using single concentration cycles and fit to a 1:1 binding model for kinetic analysis. (D) Sensorgram data for 0.03–9 μM (3-fold dilutions) CD33 WT binding to immobilized P22. Data obtained in triplicate using single concentration cycles and fit to a bivalent analyte model for kinetic analysis. Measurements in triplicate showing mean ± SD. […] Data presented are representative of three independent experiments performed in quadruplicate for each compound. […]

T1 sequence (P20138 18-143): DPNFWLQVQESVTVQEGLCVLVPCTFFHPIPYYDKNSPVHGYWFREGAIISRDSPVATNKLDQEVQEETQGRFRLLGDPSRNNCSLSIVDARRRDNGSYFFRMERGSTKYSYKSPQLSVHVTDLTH
Chain of CD33 R119A (P20138 18-364 R119A): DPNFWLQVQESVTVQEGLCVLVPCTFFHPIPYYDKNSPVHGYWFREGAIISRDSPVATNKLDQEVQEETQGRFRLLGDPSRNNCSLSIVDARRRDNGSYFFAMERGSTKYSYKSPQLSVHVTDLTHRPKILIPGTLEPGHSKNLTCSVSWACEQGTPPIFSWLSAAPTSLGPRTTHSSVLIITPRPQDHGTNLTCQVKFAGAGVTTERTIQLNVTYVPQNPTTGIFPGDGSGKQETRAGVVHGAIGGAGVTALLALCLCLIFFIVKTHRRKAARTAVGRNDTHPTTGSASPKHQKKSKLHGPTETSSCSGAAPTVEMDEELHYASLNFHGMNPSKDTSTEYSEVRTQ

Structure (SMILES): Cc1cc(C(=O)NC[C@@H](O)[C@@H](O)[C@@H]2O[C@@](OC[C@H]3O[C@@H](O[C@H]4[C@H](O)[C@@H](O)[C@H](OCCN)O[C@@H]4CO)[C@H](O)[C@@H](O)[C@H]3O)(C(=O)O)C[C@H](O)[C@H]2NC(=O)Cn2cc(C3CCCCC3)nn2)cc(C)c1O [P22, β-D-Glucopyranoside, 2-aminoethyl O-[N-[2-(4-cyclohexyl-1H-1,2,3-triazol-1-yl)acetyl]-9-deoxy-9-[(4-hydroxy-3,5-dimethylbenzoyl)amino]-α-neuraminosyl] (2→6)-O-β-D-galactopyranosyl-(1→4)-]
- IC50 (CD33): 11 µM
- Fold-decrease compared to WT (CD33 R119A): > 30 fold
- Kd (CD33 wild-type): 118 ± 41 µM
